Results from patent US9868977B2, “Red-shifted luciferins and methods of using same” (PROMEGA CORPORATION, priority 2013, dated 2018).

Assays:
Type in all cases: biochemical
[1] = tested on: Leu-aminopeptidase; test: Titration of Leu-aminopeptidase with pro-substrate and luciferin detection reagent; details: pro-substrate 20, 2 or 0.2 uM; Leu-aminopeptidase serially diluted; luminescence every 5 min for 90 min
Experimental: To a lyophilized vial of luciferin detection reagent (Promega; V859A), 10 ml of a solution of 100 mM HEPES pH 7.5/10 mM MgSO4 was added and allowed to equilibrate for 30 minutes at room temperature.
A 20 uM solution of Leu-luciferin and a 20 uM solution of PBI-5044 were prepared in a solution of 100 mM HEPES/0.1% Prionex. The 20 uM solution of PBI-5044 was then serially diluted in the HEPES/Prionex solution to 2 uM and 0.2 uM solutions.
1 U/ml Leu-aminopeptidase (Sigma) was serially diluted (FIG. 1) into each of the luciferin dilutions (20 uM Leu-luciferin, 20 uM PBI-5044, 2 uM PBI-5044 or 0.2 uM PBI-5044). For example, 50 ul 1 U/ml Leu-aminopeptidase was added to 450 ul luciferin dilution (final concentration of Leu-aminopeptidase was 0.1 U/ml). Leu-aminopeptidase was then serially diluted by adding 150 ul Leu-aminopeptidase solution to 350 ul of each prepared luciferin derivative.
In triplicate, 50 ul of each serially diluted Leu-aminopeptidase/luciferin sample was added to a well of a white, 96-well assay plate (Costar 3355), and 50 ul of the equilibrated luciferin detection reagent added to each sample. Luminescence was detected every 5 minutes for 90 minutes on a GloMax® Multi luminometer (Promega) at room temperature.

[2] = tested on: Aminopeptidase; test: Multiplexing of Leu-luciferin and PBI-5044 with filtered luminescence; details: 20 uM Leu-Luciferin/20 uM PBI-5044; 630 long pass and 525 short pass filters
Experimental: To a lyophilized vial of luciferin detection reagent (Promega; V859A), 10 ml of a solution of 100 mM HEPES pH 7.5/10 mM MgSO4 was added (LDR) and allowed to equilibrate for 30 minutes at room temperature.
Aminopeptidase was diluted to 0.01 u/ml into a solution containing 100 mM HEPES pH 7.5 and 0.1% Prionex. The following solutions were then prepared in the aminopeptidase dilution: • 1. 20 uM Leu-Luciferin, • 2. 20 uM PBI-5044, • 3. 20 uM Leu-Luciferin/20 uM PBI-5044
In triplicate, 50 ul of each of the above mixtures (1-3) was added to 50 ul of LDR and incubate for 15 minutes. Luminescence was measured on a GloMax® 96 luminometer equipped with a 630 long pass filter (Edmond Optics 253253) and a 525 short pass filter (Edmond Optics 84694).

[3] = tested on: esterase; test: Effect of esterase on bioluminescence of ester pro-substrate; details: serial dilutions; luciferin detection reagent with esterase, with or without UltraGlo luciferase
Experimental: Reconstitution buffer with esterase (10 ml; Promega Cat. No. V144A) and luciferin detection reagent (Promega; V859A) were mixed and incubated at room temperature for 30 minutes (“Luciferin Detection Reagent”). UltraGlo® luciferase (210 ul of 5.7 mg/ml; Promega) was then added to 3 mls of the luciferin detection reagent.
Serial dilutions of PBI-5045 (isonaphtholuciferin methyl ester) were made in a solution of 100 mM HEPES/10 mM MgSO4. 50 ul of each serially diluted PBI-5045 was then added to a well of a white, 96-well assay plate (n=6). Then, either 50 ul luciferin detection reagent or luciferin detection reagent with UltraGlo® luciferase was added to the wells. Luminescence was detected on a GloMax® Multi+ luminometer (Promega).
FIGS. 4A and 4B show the effects of esterase on PBI-5045.

With `CC(C)C[C@H](N)C(=O)Nc1ccc2c(ccc3nc(C4=NC(C(=O)O)CS4)sc32)c1` (stereo partly drawn) [PBI-5044, 2-(7-(Leucinyl)aminonaphtho[2,1-d]thiazol-2-yl)-4,5-dihydrothiazole-4-carboxylic acid] as the molecule, how does the “bioluminescent response as a function of added aminopeptidase (reporting protease activity)” value [1] read?
The value was “successful use in reporting protease activity”.

And the “separation of bioluminescence from luciferin by filters (multiplexing)” value [2]?
The value was “luminescence from each detected with little interference from the other”.

How did the “luminescence in presence of esterase (reporting esterase activity)” value [3] turn out when `COC(=O)C1CSC(c2nc3ccc4cc(O)ccc4c3s2)=N1` (stereo not drawn) [PBI-5045, 2-(7-Hydroxynaphtho[2,1-d]thiazol-2-yl)-4,5-dihydrothiazole-4-carboxylic acid methyl ester] was run?
The value was “successful use in reporting esterase activity”.
